According to the supplement of paper PMC10307832:

How the values were obtained:
Assay in all cases: relative viability (nuclei count vs DMSO), 5 days (fraction); higher = more cells survive
[1] = compound: CC1CC(=O)N(C2=CN=C(N=C2N1C3CCCC3)NC4=C(C=C(C=C4)C(=O)NC5CCN(CC5)C)OC)C [NPK76-II-72-1] + CC1(C)CCC(c2ccc(Cl)cc2)=C(CN2CCN(c3ccc(C(=O)NS(=O)(=O)c4ccc(N[C@H](CCN5CCOCC5)CSc5ccccc5)c(S(=O)(=O)C(F)(F)F)c4)cc3)CC2)C1 [Navitoclax] (partner 0.5 µM)
Method in brief: (§1)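 Values are medians from duplicate plates. Each reflects relative viability, defined as the nuclei count of treated wells over that of vehicle wells. Lung cancer cell lines in 1536-well plates were pin-tool dosed one day after seeding with one drug alone or with a fixed anchor-drug dose plus five library-drug doses (not always all listed) in √10 steps, then fixed, stained and imaged at 4× after 5 days.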

[2] = compound: CC1CC(=O)N(C2=CN=C(N=C2N1C3CCCC3)NC4=C(C=C(C=C4)C(=O)NC5CCN(CC5)C)OC)C [NPK76-II-72-1] + CS(=O)(=O)CCNCc1ccc(-c2ccc3ncnc(Nc4ccc(OCc5cccc(F)c5)c(Cl)c4)c3c2)o1 [Lapatinib] (partner 2 µM)
Method in brief: as §1

[3] = compound: CC[C@@H]1C(=O)N(C)c2cnc(Nc3ccc(C(=O)NC4CCN(C)CC4)cc3OC)nc2N1C1CCCC1 [BI-2536] + CCNC(=O)c1noc(-c2cc(C(C)C)c(O)cc2O)c1-c1ccc(CN2CCOCC2)cc1 [Luminespib] (partner 0.01 µM)
Method in brief: as §1

[4] = compound: CC[C@@H]1C(=O)N(C)c2cnc(Nc3ccc(C(=O)NC4CCN(C)CC4)cc3OC)nc2N1C1CCCC1 [BI-2536] + Cc1nc(Nc2ncc(C(=O)Nc3c(C)cccc3Cl)s2)cc(N2CCN(CCO)CC2)n1 [Dasatinib] (partner 0.075 µM)
Method in brief: as §1

Cell Line | relative viability ([1]; first compound 0.01 µM) | relative viability ([1]; first compound 0.03162 µM) | relative viability ([1]; first compound 0.1 µM) | relative viability ([1]; first compound 0.3162 µM) | relative viability ([1]; first compound 1 µM) | relative viability ([2]; first compound 0.01 µM) | relative viability ([2]; first compound 0.03162 µM) | relative viability ([2]; first compound 0.1 µM) | relative viability ([2]; first compound 0.3162 µM) | relative viability ([2]; first compound 1 µM) | relative viability ([3]; first compound 0.01 µM) | relative viability ([3]; first compound 0.03162 µM) | relative viability ([3]; first compound 0.1 µM) | relative viability ([3]; first compound 0.3162 µM) | relative viability ([3]; first compound 1 µM) | relative viability ([4]; first compound 0.01 µM) | relative viability ([4]; first compound 0.03162 µM) | relative viability ([4]; first compound 0.1 µM) | relative viability ([4]; first compound 0.3162 µM) | relative viability ([4]; first compound 1 µM)
NCI-H2087 | 0.972 | 1.02 | 0.997 | 0.919 | 1.06 | 1.01 | 0.999 | 0.987 | 0.983 | 1.05 | 0.161 | 0.182 | 0.139 | 0.136 | 0.157 | 0.913 | 0.926 | 0.509 | 0.105 | 0.0876
LC-2-ad | 0.469 | 0.501 | 0.599 | 0.395 | 0.541 | 0.916 | 1.02 | 0.976 | 1.04 | 1.06 | 0.897 | 0.319 | 0.325 | 0.289 | 0.375 | 0.563 | 0.333 | 0.135 | 0.197 | 0.147
NCI-H1915 | 0.749 | 0.795 | 0.786 | 0.736 | 0.826 | 0.931 | 1.07 | 1.01 | 0.881 | 0.897 | 0.848 | 0.379 | 0.219 | 0.0675 | 0.0811 | 0.292 | 0.354 | 0.139 | 0.156 | 0.0656
NCI-H1793 | 0.399 | 0.642 | 0.477 | 0.302 | 0.41 | 0.64 | 0.91 | 0.823 | 0.503 | 0.751 | 0.201 | 0.167 | 0.137 | 0.168 | 0.14 | 0.401 | 0.356 | 0.129 | 0.113 | 0.163
NCI-H2023 | 0.943 | 0.947 | 0.969 | 0.923 | 1.01 | 0.813 | 1.06 | 1.13 | 0.878 | 1.02 | 0.774 | 0.755 | 0.107 | 0.0867 | 0.0902 | 0.587 | 0.463 | 0.346 | 0.0877 | 0.0801
COR-L 105 | 0.801 | 0.742 | 0.799 | 0.717 | 0.761 | 0.404 | 0.375 | 0.358 | 0.367 | 0.345 | 0.882 | 0.514 | 0.434 | 0.325 | 0.327 | 0.359 | 0.312 | 0.212 | 0.197 | 0.148
RERF-LC-KJ | 0.878 | 0.925 | 1.17 | 0.851 | 1.14 | 0.818 | 0.869 | 0.841 | 0.818 | 0.979 | 1.28 | 0.614 | 0.26 | 0.306 | 0.303 | 0.746 | 0.574 | 0.234 | 0.189 | 0.217
